Results on five compounds are retold here after US20090264415A2 (priority 2004, published 2009).

Molecules are shown by their SMILES. Where two headings read alike, the source gives them in different places. A value given as a limit tells only on which side of the number the result lay.

The subject of data set [1] is peripheral blood mononuclear cells (PBMC) stimulated with allogeneic PBMC or EBV-transformed human B cells (RPMI1788). In words: Mixed lymphocyte reaction (MLR) assay. Format: cell-based. A digest of the protocol: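 Compounds, held as 10 mM DMSO stocks and diluted in culture medium, were added to PBMC stimulated by 30 Gy-irradiated allogeneic PBMC or RPMI1788 cells. Proliferation was read as [3H]-thymidine uptake (1 μCi, final 16 h) after 5 days at 37° C. Inhibition was derived from cpm.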

The subject of data set [2] is phosphodiesterase-4 (PDE-4) extract from U937 cells. Put plainly: Phosphodiesterase-4 inhibiting activity (isotopic two-step method). Format: biochemical. To be noted: 1.01 μM [3H]cAMP+cAMP.
The test system of data set [3] is production of human IL-1β by PBMC in response to LPS. In words: IL-1β assay (LPS-stimulated PBMC, sandwich ELISA). Format: cell-based. To be noted: LPS 1 μg/ml, 72 hours. The procedure:
Peripheral blood mononuclear cells (herein referred as PBMC), in response to stimulation by lipopolysaccharide (LPS), a gram-negative bacterial endotoxin, produce various […], in particular human IL-1β. Inhibition of the activation of PBMC can therefore be measured by the level of suppression of the production of IL-1β by PBMC in response to stimulation by LPS.
Such inhibition measurement was performed as follows: PBMC were isolated from heparinized peripheral blood by density gradient centrifugation over Lymphoprep (commercially available from Nycomed, Norway). LPS was then added to the PMBC suspension in complete medium (10^6 cells/ml) at a final concentration of 1 μg/ml. The pteridine derivative to be tested was added at different concentrations (0.1 μM, 1 μM and 10 μM) and the cells were incubated at 37° C. for 72 hours in 5% CO2. The supernatants were collected, then IL-1β concentrations were measured with an anti-IL-1β antibody in a sandwich ELISA. The calorimetric reading of the ELISA was measured by a Multiskan RC plate reader (commercially available from ThermoLabsystems, Finland) at 450 nm (reference wavelength: 690 nm). Data analysis was performed with Ascent software 2.6. (also from ThermoLabsystems, Finland): a standard curve (recombinant human IL-1β) was drawn and the amount (pg/ml) of each sample on the standard curve was determined.
The % suppression of human IL-1β by the pyrido[3,2-d]pyrimidine derivatives of this invention was calculated using the formula: [formula]
(In general: In an ELISA, binding on a coated surface is turned into a signal by an enzyme label.)

Data set [4] has as its system production of human TNF-α by PBMC in response to LPS. In words: TNF-α assay (LPS-stimulated PBMC, sandwich ELISA). Format: cell-based. In outline: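 Human PBMC isolated from heparinised blood by density gradient (10^6 cells/ml) stimulated with LPS at 1 μg/ml final, with test compound at 0.1, 1 and 10 μM, 72 h at 37° C, 5% CO2. Supernatant TNF-α quantified by sandwich ELISA against recombinant standard curve; % suppression calculated.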

Data set [5] can be described thus: Cytostatic effect on Huh-5-2 cells (MTS method). Format: cell-based. To be noted: human, 50% inhibition of cell growth. The procedure: (§1) Huh-5-2 cells [a cell line with a persistent HCV replicon I3891uc-ubi-neo/NS3-3′/5.1; replicon with firefly luciferase-ubiquitin-neomycin phosphotransferase fusion protein and EMCV-IRES driven NS3-5B HCV polyprotein] was cultured in a RPMI medium (commercially available from Gibco) supplemented with 10% fetal calf serum, 2 mM L-glutamine (commercially available from Life Technologies), 1× non-essential amino acids (commercially available from Life Technologies); 100 IU/ml penicillin, 100 μg/ml streptomycin and 250 μg/ml G418 (Geneticin, commercially available from Life Technologies). Cells were seeded at a density of 7,000 cells per well in 96 well View Plate (commercially available from Packard) in a medium containing the same components as described above, except for G418. Cells were allowed to adhere and proliferate for 24 hours. […] Luciferase activity was measured by adding 50 μl of 1×Glo-lysis buffer (commercially available from Promega) for 15 minutes followed by 50 μl of the Steady-Glo Luciferase assay reagent (commercially available from Promega). Luciferase activity was measured with a luminometer and the signal in each individual well was expressed as a percentage of the untreated cultures. […] Instead the density of the culture was measured by means of the MTS method (commercially available from Promega). […]

Data set [6] relates to HCV replicon in Huh-5-2 cells. In words: Anti-HCV assay/replicon assay (luciferase). Format: cell-based. To be noted: Hepatitis C virus. The protocol:
as §1

Setting [7] is: Homo sapiens, RPMI-1788, 50% suppression of the MLR, [3H]-thymidine incorporation, read-out: MLR.
[8] abbreviates: Homo sapiens, PBMC, LPS 1 μg/ml, 72 hours, read-out: TNF α.

Regarding `COc1ccc(-c2ccc3nc(N)nc(N4CCN(C(=O)Nc5cccc(C)c5)CC4)c3n2)cc1OC` [Example 42, 2-amino-4-(4-{[(3-methylphenyl)amino]carbonyl}piperazin-1-yl)-6-(3,4-dimethoxyphenyl)-pyrido[3,2-d]pyrimidine], the IC50 was 0.064 nM in data set [1] (setting [7]); 61 nM in data set [2]; 1800 nM in data set [3] (Homo sapiens, PBMC); 0.06 µM in data set [4] (setting [8]).
With `COc1ccc(-c2ccc3nc(N)nc(N4CCOCC4)c3n2)cc1OC` [Example 41, 2-amino-4-morpholino-6-(3,4-dimethoxyphenyl)-pyrido[3,2-d]pyrimidine], the IC50 was 37 nM in data set [1] (setting [7]); 410 nM in data set [2]; 7900 nM in data set [3] (Homo sapiens, PBMC); 0.03 µM in data set [4] (setting [8]).
In turn, `COc1ccc(-c2ccc3nc(N)nc(Nc4cccc(C)c4)c3n2)cc1OC` [Example 27, 2-amino-4-(3-methyl-anilino)-6-(3,4-dimethoxyphenyl)-pyrido[3,2-d]pyrimidine] came in with a CC50 at 72 h in data set [5] greater than 50000 nM. In addition, the IC50 in data set [1] (setting [7]) was found to be 5700 nM; in data set [4] (setting [8]) it was 6.4 µM. In addition, in data set [6] (Huh-5-2 replicon cells, 72 hours, read-out: EC50), the EC50 turned out to be 500 nM.
As to `COc1ccc(-c2ccc3nc(N)nc(N[C@H]4CC[C@H](N)CC4)c3n2)cc1OC` [Example 36], half-maximal cytotoxicity in data set [5] (CC50 at 72 h) was put at 7700 nM. Besides, the IC50 in data set [1] (Homo sapiens, RPMI-1788, read-out: MLR (μM)) worked out at 6500 nM; in data set [4] (Homo sapiens, PBMC, 72 h, read-out: TNF α (μM)), 2.9 µM. Besides, the EC50 in data set [6] (Huh-5-2, 72 h) came to 1000 nM.
`COc1ccc(-c2ccc3nc(N)nc(NCc4cccs4)c3n2)cc1OC` [Example 32, 2-amino-4-(thienyl-2-methylamino)-6-(3,4-dimethoxyphenyl)-pyrido[3,2-d]pyrimidine-2,4-diamine]: the IC50 in data set [1] (50% suppression of the MLR, [3H]-thymidine incorporation, read-out: MLR) came out at 800 nM; in data set [3], 6900 nM; in data set [4] (LPS 1 μg/ml, 72 hours, read-out: TNF α) it was 0.8 µM.

One may read the CC50 as the concentration that lowers cell viability or growth by half. As usually defined, the EC50 is the concentration that produces a half-maximal response.
